From PubChem BioAssay AID256 (DTP/NCI, 2004)
Values joined by “and” are separate entries in the source; they are usually repeats but may differ in a detail not shown here. Identical values can stand only once. Inconclusive results and toxic doses are left out.

System: CD2F1 mice, L1210 leukemia ip, survival T/C
Experiment: NCI In Vivo Anticancer Drug Screen. Data for tumor model L1210 Leukemia (intraperitoneal) in CD2F1 (CDF1) mice
Conditions: higher = longer survival
In short: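 Vehicle-treated tumor-bearing mice served as controls (C) for compound-treated mice (T). Reported figure is T divided by C.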

SMILES: COc1cccc2c1C(=O)c1c(O)c3c(c(O)c1C2=O)C[C@@](O)(C(=O)CO)C[C@@H]3OC1CC(N)C(O)C(C)O1 (some centres not stated)
- T/C (endpoint: mean survival time, dose: 0.06 mg/kg/injection, schedule: Q01DX009 (ip), vehicle: saline): 105 % of control
- T/C (endpoint: mean survival time, dose: 0.12 mg/kg/injection, schedule: Q01DX009 (ip), vehicle: saline): 114 % of control
- T/C (endpoint: mean survival time, dose: 0.2 mg/kg/injection, schedule: Q01DX009 (ip), vehicle: water): 113 % of control and 114 % of control
- T/C (endpoint: mean survival time, dose: 0.25 mg/kg/injection, schedule: Q01DX005 (ip), vehicle: water): 121 % of control
- T/C (endpoint: mean survival time, dose: 0.38 mg/kg/injection, schedule: Q01DX009 (ip), vehicle: saline): 121 % of control
- T/C (endpoint: mean survival time, dose: 0.39 mg/kg/injection, schedule: Q01DX009 (ip), vehicle: water): 117 % of control
- T/C (endpoint: mean survival time, dose: 0.43 mg/kg/injection, schedule: Q01DX009 (ip), vehicle: saline): 120 % of control
- T/C (endpoint: mean survival time, dose: 0.62 mg/kg/injection, schedule: Q04DX003 (ip), vehicle: water): 120 % of control
- T/C (endpoint: mean survival time, dose: 0.63 mg/kg/injection, schedule: Q04DX003 (ip), vehicle: water): 123 % of control
- T/C (endpoint: mean survival time, dose: 0.72 mg/kg/injection, schedule: Q01DX009 (ip), vehicle: saline): 173 % of control
- T/C (endpoint: mean survival time, dose: 1.0 mg/kg/injection, schedule: Q01DX001 (ip), vehicle: water): 101 % of control
- T/C (endpoint: mean survival time, dose: 1.0 mg/kg/injection, schedule: Q01DX005 (ip), vehicle: water): 174 % of control
- T/C (endpoint: mean survival time, dose: 1.08 mg/kg/injection, schedule: Q04DX003 (ip), vehicle: saline): 124 % of control
- T/C (endpoint: mean survival time, dose: 1.2 mg/kg/injection, schedule: Q01DX009 (ip), vehicle: saline): 204 % of control
- T/C (endpoint: mean survival time, dose: 1.68 mg/kg/injection, schedule: Q01DX001 (ip), vehicle: water): 159 % of control
- T/C (endpoint: mean survival time, dose: 1.68 mg/kg/injection, schedule: Q01DX009 (ip), vehicle: water): 160 % of control
- T/C (endpoint: mean survival time, dose: 1.7 mg/kg/injection, schedule: Q01DX001 (ip), vehicle: water): 99 % of control
- T/C (endpoint: mean survival time, dose: 1.8 mg/kg/injection, schedule: Q04DX003 (ip), vehicle: saline): 121 % of control
- T/C (endpoint: mean survival time, dose: 2.0 mg/kg/injection, schedule: Q01DX001 (ip), vehicle: saline): 102 % of control
- T/C (endpoint: mean survival time, dose: 2.5 mg/kg/injection, schedule: Q04DX003 (ip), vehicle: water): 187 % of control
- T/C (endpoint: mean survival time, dose: 2.8 mg/kg/injection, schedule: Q01DX001 (ip), vehicle: water): 155 % of control
- T/C (endpoint: mean survival time, dose: 2.8 mg/kg/injection, schedule: Q01DX009 (ip), vehicle: water): 153 % of control
- T/C (endpoint: mean survival time, dose: 2.9 mg/kg/injection, schedule: Q01DX001 (ip), vehicle: water): 98 % of control
- T/C (endpoint: mean survival time, dose: 3.0 mg/kg/injection, schedule: Q01DX009 (ip), vehicle: saline): 114 % of control and 101 % of control
- T/C (endpoint: mean survival time, dose: 3.13 mg/kg/injection, schedule: Q01DX009 (ip), vehicle: water): 101 % of control
- T/C (endpoint: mean survival time, dose: 4.0 mg/kg/injection, schedule: Q01DX001 (ip), vehicle: saline): 193 % of control
- T/C (endpoint: mean survival time, dose: 4.67 mg/kg/injection, schedule: Q01DX001 (ip), vehicle: water): 166 % of control
- T/C (endpoint: mean survival time, dose: 4.67 mg/kg/injection, schedule: Q01DX009 (ip), vehicle: water): 100 % of control
- T/C (endpoint: mean survival time, dose: 4.8 mg/kg/injection, schedule: Q01DX001 (ip), vehicle: water): 102 % of control
- T/C (endpoint: mean survival time, dose: 5.0 mg/kg/injection, schedule: Q01DX001 (ip), vehicle: saline): 150 % of control and 171 % of control
- T/C (endpoint: mean survival time, dose: 5.0 mg/kg/injection, schedule: Q01DX001 (ip), vehicle: water): 151 % of control and 178 % of control
- T/C (endpoint: mean survival time, dose: 5.0 mg/kg/injection, schedule: Q04DX003 (ip), vehicle: water): 166 % of control
- T/C (endpoint: mean survival time, dose: 5.4 mg/kg/injection, schedule: Q01DX001 (ip), vehicle: saline): 151 % of control and 260 % of control
- T/C (endpoint: mean survival time, dose: 6.6 mg/kg/injection, schedule: Q01DX001 (ip), vehicle: saline): 193 % of control
- T/C (endpoint: mean survival time, dose: 7.78 mg/kg/injection, schedule: Q01DX001 (ip), vehicle: water): 153 % of control
- T/C (endpoint: mean survival time, dose: 8.0 mg/kg/injection, schedule: Q01DX001 (ip), vehicle: saline): 208 % of control
- T/C (endpoint: mean survival time, dose: 8.0 mg/kg/injection, schedule: Q01DX001 (ip), vehicle: water): 98 % of control
- T/C (endpoint: mean survival time, dose: 8.0 mg/kg/injection, schedule: Q04DX003 (ip), vehicle: saline): 163 % of control
- T/C (endpoint: mean survival time, dose: 8.0 mg/kg/injection, schedule: Q04DX003 (ip), vehicle: water): 116 % of control
- T/C (endpoint: mean survival time, dose: 10.0 mg/kg/injection, schedule: Q01DX001 (ip), vehicle: water): 169 % of control and 176 % of control
- T/C (endpoint: mean survival time, dose: 10.0 mg/kg/injection, schedule: Q04DX003 (ip), vehicle: water): 89 % of control
- T/C (endpoint: mean survival time, dose: 12.96 mg/kg/injection, schedule: Q01DX001 (ip), vehicle: water): 161 % of control
- T/C (endpoint: mean survival time, dose: 13.33 mg/kg/injection, schedule: Q01DX001 (ip), vehicle: water): 104 % of control
- T/C (endpoint: mean survival time, dose: 15.0 mg/kg/injection, schedule: Q01DX001 (ip), vehicle: saline): 196 % of control and 201 % of control
- T/C (endpoint: mean survival time, dose: 18.0 mg/kg/injection, schedule: Q01DX001 (ip), vehicle: saline): 121 % of control
- T/C (endpoint: mean survival time, dose: 20.0 mg/kg/injection, schedule: Q01DX001 (ip), vehicle: saline): 225 % of control
- T/C (endpoint: mean survival time, dose: 20.0 mg/kg/injection, schedule: Q01DX001 (ip), vehicle: water): 121 % of control and 263 % of control
- T/C (endpoint: mean survival time, dose: 22.23 mg/kg/injection, schedule: Q01DX001 (ip), vehicle: water): 119 % of control
- T/C (endpoint: mean survival time, dose: 40.0 mg/kg/injection, schedule: Q01DX001 (ip), vehicle: water): 100 % of control
- T/C (endpoint: mean survival time, dose: 20.0 micrograms/kg/injection, schedule: Q01DX005 (ip), vehicle: saline): 100 % of control
- T/C (endpoint: mean survival time, dose: 40.0 micrograms/kg/injection, schedule: Q01DX005 (ip), vehicle: saline): 117 % of control
- T/C (endpoint: median survival time, dose: 0.5 mg/kg/injection, schedule: Q01DX009 (ip), vehicle: saline): 170 % of control
- T/C (endpoint: median survival time, dose: 1.0 mg/kg/injection, schedule: Q01DX005 (ip), vehicle: water): 150 % of control
- T/C (endpoint: median survival time, dose: 2.0 mg/kg/injection, schedule: Q01DX005 (ip), vehicle: water): 162 % of control
- T/C (endpoint: median survival time, dose: 2.0 mg/kg/injection, schedule: Q04DX003 (ip), vehicle: water): 163 % of control
- T/C (endpoint: median survival time, dose: 2.16 mg/kg/injection, schedule: Q04DX003 (ip), vehicle: saline): 115 % of control
- T/C (endpoint: median survival time, dose: 3.6 mg/kg/injection, schedule: Q01DX001 (ip), vehicle: saline): 151 % of control
- T/C (endpoint: median survival time, dose: 3.6 mg/kg/injection, schedule: Q04DX003 (ip), vehicle: saline): 113 % of control
- T/C (endpoint: median survival time, dose: 4.0 mg/kg/injection, schedule: Q04DX003 (ip), vehicle: saline): 157 % of control
- T/C (endpoint: median survival time, dose: 4.0 mg/kg/injection, schedule: Q04DX003 (ip), vehicle: water): 339 % of control
- T/C (endpoint: median survival time, dose: 4.8 mg/kg/injection, schedule: Q01DX001 (ip), vehicle: saline): 103 % of control
- T/C (endpoint: median survival time, dose: 5.0 mg/kg/injection, schedule: Q01DX001 (ip), vehicle: saline): 150 % of control and 155 % of control
- T/C (endpoint: median survival time, dose: 6.0 mg/kg/injection, schedule: Q01DX001 (ip), vehicle: saline): 152 % of control
- T/C (endpoint: median survival time, dose: 6.0 mg/kg/injection, schedule: Q04DX003 (ip), vehicle: saline): 115 % of control
- T/C (endpoint: median survival time, dose: 8.0 mg/kg/injection, schedule: Q01DX009 (ip), vehicle: saline): 104 % of control
- T/C (endpoint: median survival time, dose: 8.0 mg/kg/injection, schedule: Q04DX003 (ip), vehicle: saline): 154 % of control
- T/C (endpoint: median survival time, dose: 8.0 mg/kg/injection, schedule: Q04DX003 (ip), vehicle: water): 182 % of control and 339 % of control
- T/C (endpoint: median survival time, dose: 8.4 mg/kg/injection, schedule: Q04DX003 (ip), vehicle: water): 103 % of control
- T/C (endpoint: median survival time, dose: 9.6 mg/kg/injection, schedule: Q01DX001 (ip), vehicle: saline): 113 % of control and 216 % of control
- T/C (endpoint: median survival time, dose: 14.0 mg/kg/injection, schedule: Q04DX003 (ip), vehicle: water): 78 % of control
- T/C (endpoint: median survival time, dose: 16.0 mg/kg/injection, schedule: Q01DX001 (ip), vehicle: water): 76 % of control
- T/C (endpoint: median survival time, dose: 16.0 mg/kg/injection, schedule: Q01DX001 (iv), vehicle: water): 193 % of control
- T/C (endpoint: median survival time, dose: 20.0 mg/kg/injection, schedule: Q01DX001 (ip), vehicle: saline): 71 % of control
- T/C (endpoint: median survival time, dose: 26.7 mg/kg/injection, schedule: Q01DX001 (ip), vehicle: saline): 99 % of control
- T/C (endpoint: median survival time, dose: 32.0 mg/kg/injection, schedule: Q01DX001 (iv), vehicle: water): 65 % of control
- T/C (endpoint: median survival time, dose: 40.0 mg/kg/injection, schedule: Q01DX001 (ip), vehicle: saline): 53 % of control

SMILES: COc1ccc(/C=C\[N+](=O)[O-])cc1OC
- T/C (endpoint: mean survival time, dose: 100.0 mg/kg/injection, schedule: Q04DX003 (ip), vehicle: Klucel (hydroxypropylcellulose) (HPC)): 101 % of control
- T/C (endpoint: mean survival time, dose: 200.0 mg/kg/injection, schedule: Q04DX003 (ip), vehicle: Klucel (hydroxypropylcellulose) (HPC)): 104 % of control
- T/C (endpoint: mean survival time, dose: 400.0 mg/kg/injection, schedule: Q04DX003 (ip), vehicle: Klucel (hydroxypropylcellulose) (HPC)): 101 % of control

SMILES: C=CCC(C#N)(CC=C)C(=O)OCC
- T/C (endpoint: mean survival time, dose: 50.0 mg/kg/injection, schedule: Q01DX001 (ip), vehicle: Klucel (hydroxypropylcellulose) (HPC)): 102 % of control
- T/C (endpoint: mean survival time, dose: 100.0 mg/kg/injection, schedule: Q01DX001 (ip), vehicle: Klucel (hydroxypropylcellulose) (HPC)): 96 % of control
- T/C (endpoint: mean survival time, dose: 200.0 mg/kg/injection, schedule: Q01DX001 (ip), vehicle: Klucel (hydroxypropylcellulose) (HPC)): 102 % of control
